Results reported in US6562854B2, “Compositions comprising a substituted benzimidazole useful for treating immunomediated inflammatory disorders” (Axys Pharmaceuticals, Inc., priority 1994, dated 2003).

tested on: tryptase purified from human lung or skin tissue preparations or human mast cell line (HMC-1); test: In vitro Tryptase Inhibition Assay; assay type: biochemical; conditions: substrate tosyl-Gly-Pro-Lys-p-nitroanilide; Tris-HCl pH 8.2; zinc chloride 150 μM; 1 hour preincubation at room temperature; read-out: Ki (apparent inhibition constant, tryptase inhibitory activity)
Procedure: Tryptase solution ([…]) was prepared by dissolving tryptase purified from human lung or skin tissue preparations or human mast cell line (HMC-1) or obtained from commercial sources, e.g., ICN Biomeidals, Irvine, Calif., Athens Research & Technology, Athens, Ga., etc., in a solvent mixture comprising: 10 mM 2-N-morpholinoethane sulfonic acid, 2 mM CaCl2, 20% glycerol and 50 µg/mL heparin. Substrate solution containing 2 mM synthetic tripeptide (tosyl-Gly-Pro-Lys-p-nitroanilide) was obtained from Sigma. Test Compound solutions were prepared by diluting a stock solution (1 mg of test Compound in 200 μL of dimethylsulfoxide (DMSO)) by ten-fold into assay buffer (comprising: Tris-HCl (pH 8.2), 50 mM; NaCl, 100 MM; 0.05% polyoxyethylenesorbitan monolaurate (Tween-20®); and zinc chloride, 150 μM) and then making seven additional three-fold dilutions into 10% DMSO in assay buffer.
Aliquots (50 μL) from each of the eight dilutions of test compound solution were added to separate wells in a 96-well U-bottom microtiter plate. Typtase solution (25 μL) was added to each well and the solutions were mixed 1 hour at room temperature. Substrate solution (25 μL) was added to initiate the enzymatic reaction and the microtiter plates were immediately transferred to a UVIMAX Kinetic Microplate Reader (Molecular Devices). The hydrolysis of the chromogenic substrate was followed spectrophotometrically at 405 nanometers for five minutes. Initial velocity measurements were calculated from the progress curves by kinetic analysis program (BatchKi; Petr Kuzmic, University of Wisconsin, Madison, Wis.). Apparent inhibition constants (K) were calculated from the enzyme progress curves using standard mathematical models.

Row | Compound | Ki [nM]
1 | CC(c1nc2c(F)cc(F)c(F)c2[nH]1)c1nc2ccc(C(=O)NCCOc3ccccc3C(=O)O)cc2n1C (stereo not drawn) [Compound 80, 2-(2-{2-[1-(4,6,7-Trifluoro-1H-benzoimidazol-2-yl)ethyl]-3-methyl-3H-benzoimidazol-5-ylcarbonylamino}ethoxy)benzoic acid] | 10
2 | CC(=N)N1CCc2[nH]c(Cc3nc4ccc(C(=O)NCCc5cccc6ccccc56)cc4n3C)nc2C1 [Compound 115, 2-[5-(1-iminoethyl)-4,5,6,7-tetrahydro-1H-imidazo[4,5-c]pyridin-2-ylmethyl]-3-methyl-N-(2-naphth-1-ylethyl)-3H-benzoimidazole-5-carboxamide] | 3
3 | CC(c1nc2cc(F)c(F)cc2[nH]1)c1nc2ccc(C(=O)NCCOc3ccccc3C(=O)O)cc2n1C (stereo not drawn) [Compound 81, 2-(2-{2-[1-(5,6-difluoro-1H-benzoimidazol-2-yl)ethyl]-3-methyl-3H-benzoimidazol-5-ylcarbonylamino}ethoxy)benzoic acid] | 10
4 | CC(=N)N1CCc2[nH]c(Cc3nc4ccc(C(=O)NCCc5ccc(O)c6ccccc56)cc4n3C)nc2C1 [Compound 128, 2-[5-(1-iminoethyl)-4,5,6,7-tetrahydro-1H-imidazo[4,5-c]pyridin-2-ylmethyl]-3-methyl-N-[2-(4-hydroxynaphthal-1-yl)ethyl]-3H-benzoimidazole-5-carboxamide] | 2
5 | 2-(5-Guanidino-1H-benzoimidazol-2-ylmethyl)-N-(2-naphthalen-1-ylethyl)-3-methyl-3H-benzoimidazole-5-carboxyamide [Compound 28] | 0.07
6 | CCOC(=O)c1ccccc1CCCC(=O)N1CCc2[nH]c(C(C)c3nc4cc(NC(=N)N)ccc4[nH]3)nc2C1 (stereo not drawn) [Compound 29, Ethyl 2-(4-{2-[1-(5-guanidino-1H-benzoimidazol-2-yl)ethyl]-1,4,6,7-tetrahydroimidazo[4,5-c]pyridin-5-yl}-4-oxobutyl)benzoate] | 0.8
7 | Cn1c(Cc2nc3cc(CN)ccc3[nH]2)nc2ccc(C(=O)NCCc3cccc4ccccc34)cc21 [Compound 102, 2-(5-aminomethyl-1H-benzoimidazol-2-ylmethyl)-3-methyl-N-(2-naphth-1-ylethyl)-3H-benzoimidazole-5-carboxamide] | 0.07
8 | Cn1c(Cc2nc3c([nH]2)CCC(CN)C3)nc2ccc(C(=O)NCCc3cccc4ccccc34)cc21 (stereo not drawn) [Compound 112, 2-(5-aminomethyl-4,5,6,7-tetrahydro-1H-benzoimidazol-2-ylmethyl)-3-methyl-N-(2-naphth-1-ylethyl)-3H-benzoimidazole-5-carboxamide] | 0.05
9 | CC(=N)N1CCc2[nH]c(C(C)c3nc4ccc(C(=O)NCCc5cccc6ccccc56)cc4n3C)nc2C1 (stereo not drawn) [Compound 169, 2-{1-[5-(1-iminoethyl)-4,5,6,7-tetrahydro-1H-imidazo[4,5-c]pyridin-2-yl]ethyl}-3-methyl-N-(2-naphth-1-ylethyl)-3H-benzoimidazole-5-carboxamide] | 1
10 | CCOC(=O)c1ccccc1OCCNC(=O)c1ccc2nc(C(C)c3nc4c([nH]3)CCN(C(C)=N)C4)n(C)c2c1 (stereo not drawn) [Compound 182, ethyl 2-[2-(2-{1-[5-(1-iminoethyl)-4,5,6,7-tetrahydro-1H-imidazo[4,5-c]pyridin-2-yl]ethyl}-3-methyl-3H-benzoimidazol-5-ylcarbonylamino)ethoxy]benzoate] | 4
11 | COc1ccccc1OCCNC(=O)c1ccc2nc(C(C)c3nc4cc(O)ccc4[nH]3)n(C)c2c1 (stereo not drawn) [Compound 30, 2-[1-(5-Hydroxy-1H-benzoimidazol-2-yl)ethyl]-N-[2-(2-methoxyphenoxy)ethyl]-3-methyl-3H-benzoimidazole-5-carboxamide] | 9
12 | CCCOC(=O)c1ccccc1OCCNC(=O)c1ccc2nc(C(C)c3nc4cc(O)ccc4[nH]3)n(C)c2c1 (stereo not drawn) [Compound 42, propyl 2-(2-{2-[1-(5-hydroxy-1H-benzoimidazol-2-yl)ethyl]-3-methyl-3H-benzoimidazol-5-ylcarbonylamino}ethoxy)benzoate] | 8
13 | N=C(N)Nc1ccc2[nH]c(C(=O)c3nc4ccc(C(=O)NCCc5cccc6ccccc56)cc4n3CC(O)CO)nc2c1 (stereo not drawn) [Compound 134, 2-(5-guanidino-1H-benzoimidazol-2-ylcarbonyl)-3-(2,3-dihydroxy)propyl-N-(2-naphth-1-ylethyl)-3H-benzoimidazole-5-carboxamide] | 0.02
14 | CC(c1nc2cc(NC(=N)N)ccc2[nH]1)c1nc2ccc(C(=O)NCCOc3ccccc3C(N)=O)cc2n1C (stereo not drawn) [Compound 249, 2-[1-(5-guanidino-1H-benzoimidazol-2-yl)ethyl]-N-[2-(2-carbamoylphenoxy)ethyl]-3-methyl-3H-benzoimidazole-5-carboxamide] | 0.7
15 | CCOC(=O)c1ccccc1OCCNC(=O)c1ccc2nc(C(C)c3nc4c(F)cc(F)c(F)c4[nH]3)n(C)c2c1 (stereo not drawn) [Compound 75, ethyl 2-(2-{2-[1-(4,6,7-trifluoro-1H-benzoimidazol-2-yl)ethyl]-3-methyl-3H-benzoimidazol-5-carbonylamino}ethoxy}benzoate] | 30
16 | CC(=N)N1CCc2[nH]c(C(C)c3nc4ccc(C(=O)NCCOc5ccccc5-c5nnn[nH]5)cc4n3C)nc2C1 (stereo not drawn) [Compound 225, 2-{1-[5-(1-iminoethyl)-4,5,6,7-tetrahydro-1H-imidazo[4,5-c]pyridin-2-yl]ethyl}-3-methyl-N-[2-(2-tetrazolylphenoxy)ethyl]-3H-benzoimidazole-5-carboxamide] | 8
17 | CC(C)COC(=O)c1ccccc1OCCNC(=O)c1ccc2nc(C(C)c3nc4cc(O)ccc4[nH]3)n(C)c2c1 (stereo not drawn) [Compound 43, isobutyl 2-(2-{2-[1-(5-hydroxy-1H-benzoimidazol-2-yl)ethyl]-3-methyl-3H-benzoimidazol-5-ylcarbonylamino}ethoxy)benzoate] | 2
18 | NCc1ccc2[nH]c(Cc3nc4cc(OCCCCc5ccccc5)ccc4[nH]3)nc2c1 [Compound 26, C-{2-[5-(4-phenylbutoxy)-1H-benzoimidazol-2-ylmethyl]-1H-benzoimidazol-5-yl}methylamine] | 33000
19 | CC(c1nc2cc(NC(=N)N)ccc2[nH]1)c1nc2ccc(C(=O)NCCOc3cc(Cl)ccc3C(=O)O)cc2n1C (stereo not drawn) [Compound 251, 4-chloro-2-(2-{2-[1-(5-guanidino-1H-benzoimidazol-2-yl)ethyl]-3-methyl-3H-benzoimidazol-5-ylcarbonylamino}ethoxy)benzoic acid] | 0.8
20 | N=C(N)Nc1ccc2[nH]c(Cc3nc4ccc(C(=O)NCCc5cccc6ccccc56)cc4n3CCO)nc2c1 [Compound 152, 2-(5-guanidino-1H-benzoimidazol-2-ylmethyl)-3-(2-hydroxy)ethyl-N-(2-naphth-1-ylethyl)-3H-benzoimidazole-5-carboxamide] | 0.5
21 | CC(=N)N1CCc2[nH]c(C(=O)c3nc4ccc(C(=O)NCCc5cccc6ccccc56)cc4n3C)nc2C1 [Compound 116, 2-[5-(1-iminoethyl)-4,5,6,7-tetrahydro-1H-imidazo[4,5-c]pyridin-2-ylcarbonyl]-3-methyl-N-(2-naphth-1-ylethyl)-3H-benzoimidazole-5-carboxamide] | 6
22 | Cn1c(Cc2nc3cc(CN)ccc3[nH]2)nc2cc(C(=O)NCCCN)ccc21 [Compound 12, 2-(5-Aminomethyl-1H-benzoimidazol-2-ylmethyl)-N-(3-aminopropyl)-1-methyl-1H-benzoimidazole-5-carboxamide] | 29000
23 | CCOC(=O)c1ccccc1OCCNC(=O)N1CCc2[nH]c(C(C)c3nc4c([nH]3)CCN(C(C)=N)C4)nc2C1 (stereo not drawn) [Compound 203, ethyl 2-[2-(2-{1-[5-(1-iminoethyl)-4,5,6,7-tetrahydro-1H-imidazo[4,5-c]pyridin-2-yl]ethyl}-1,4,6,7-tetrahydroimidazo[4,5-c]pyridin-5-ylcarbonylamino)ethoxy]benzoate] | 8
24 | Cn1c(Cc2nc3c([nH]2)CCN(C=N)C3)nc2ccc(C(=O)NCCc3cccc4ccccc34)cc21 [Compound 117, 2-(5-iminomethyl-4,5,6,7-tetrahydro-1H-imidazo[4,5-c]pyridin-2-ylmethyl)-3-methyl-N-(2-naphth-1-ylethyl)-3H-benzoimidazole-5-carboxamide] | 8
25 | CC(=N)N1CCc2[nH]c(C(C)c3nc4ccc(C(=O)NCCOc5ccccc5C(=O)O)cc4n3C)nc2C1 (stereo not drawn) [Compound 74, 2-[2-(2-{1-[5-(1-iminoethyl)-4,5,6,7-tetrahydro-1H-imidazo[4,5-c]pyridin-2-yl]ethyl}-3-methyl-3H-benzoimidazol-5-ylcarbonylamino)ethoxy]benzoic acid] | 6
26 | CCCCOC(=O)c1ccccc1OCCNC(=O)c1ccc2nc(C(C)c3nc4cc(O)ccc4[nH]3)n(C)c2c1 (stereo not drawn) [Compound 37, butyl 2-(2-{2-[l-(5-hydroxy-1H-benzoimidazol-2-yl)ethyl]-3-methyl-3H-benzoimidazol-5-ylcarbonylamino}ethoxy)benzoate] | 2
27 | CC(c1nc2cc(NC(=N)N)ccc2[nH]1)c1nc2ccc(C(=O)NCCOc3ccc(Cl)cc3C(=O)O)cc2n1C (stereo not drawn) [Compound 252, 5-chloro-2-(2-{2-[1-(5-guanidino-1H-benzoimidazol-2-yl)ethyl]-3-methyl-3H-benzoimidazol-5-ylcarbonylamino}ethoxy)benzoic acid] | 0.4
